Target: γ-secretase (Homo sapiens (Human), UniProt P49768)
Test: HTRF γ-secretase assay with Sb4 substrate
Format: biochemical
Description: We set out to transfer the assay conditions obtained with the ECL method to an HTRF detection based format (FIG. 10b). The HTRF detection mixture consisted of mouse G2-10 antibody for recognition of the C-terminal epitope of the cleaved product, a Europium-labeled anti-mouse antibody (commonly, an antibody is conjugated with a cryptate ligand that forms a three dimensional coordination cage structure surrounding a lanthanide such as Eu^3+), along with Streptavidin conjugated to a trimeric form of the fluorescent protein allophycocyanin referred to as XL665. Cleavage of Sb4 substrate allows G2-10 mouse antibody to bind to the Aβ40-processed site on the cleaved substrate. The Steptavidin-XL665 conjugate binds directly with the biotin moiety on the N-terminal end of the Sb4 derived product. The anti-mouse Europium antibody targets to the G2-10 antibody, bringing all of these entities into close proximity. The Europium and XL665 reagents are a compatible pair of donor-acceptor fluorophores, and excitation of Europium at 337 nm results in fluorescence energy resonance transfer (FRET) to XL665 which fluoresces at 665 nm (FIG. 10b).
Human γ-secretase was prepared from HeLa cell membranes as described previously (Li et al., 2000). Briefly, HeLa cell pellet was resuspended in 1×MES buffer (50 mM MES, pH 6.0, 150 mM KCl, 5 mM CaCl2, 5 mM MgCl2) and treated with ‘complete’ protease inhibitor (Boehringer Mannheim). The resuspended pellet was mechanically homogenized by passing the cells through the French Press (Spectronic Instruments), and subsequently spun down at 800 g to remove cell debris and nuclei. Next, the supernatants were spun at 100,000 g in order to pellet the membranes. The pelleted membranes were resuspended in 1×MES buffer to approximately 12 mg/ml. This entire procedure was performed at 4° C. HeLa membranes were solubilized using 1% CHAPSO detergent in 1×MES buffer with protease inhibitors. After incubating for 1 hr at 4° C., the membrane was spun down at 100,000 g and the supernatants were collected and stored at −70° C. The collected fraction is defined as solubilized γ-secretase.
HTRF conditions were initially optimized in a 384-well format using a final volume of 20 μl. The high control for this assay was defined as the observed γ-secretase activity in the presence of 1% DMSO (v/v) and the low control as the activity observed when including 100 nM final concentration of Compound E (v/v). First, we determined a tolerable DMSO concentration that would not interfere with γ-secretase activity. Even with 3% DMSO (v/v) present in the assay mixture, there was virtually no effect on the γ-secretase activity (FIG. 11a), which was critical as delivery of library screening compounds required a final concentration of 2% DMSO (v/v) in the γ-secretase reaction. Next, we titrated the HTRF mixture components in an effort to minimize reagent costs for use in high throughput screening. […] Additionally, we varied Europium conjugated anti-mouse antibody and determined that 1 nM of this reagent in the HTRF mixture was sufficient for our assay conditions even though the signal continued to increase with higher concentrations of the anti-mouse antibody (FIG. 11c).
We have further miniaturized the HTRF assay from the established 384-well format to a 1536-well platform enabling more efficient screening of large chemical libraries. […] Based on these optimization experiments, we set our final assay conditions at 0.3 nM G2-10, 1 nM anti-mouse antibody, 15 nM Streptavidin-XL665, and proceeded with the assay at 10 μl final volume (5 μl γ-secretase mix+5 μl HTRF mix) in the 1536-well format for screening.
The pilot assay was performed in duplicate on two separate days to account for any day-to-day variability. […]

## CC(NC(=O)Cc1cc(F)cc(F)c1)C(=O)NC1N=C(c2ccccc2)c2ccccc2N(C)C1=O (stereo not shown) [Compound E]
  IC50: 1.1 nM
